Test results from patent publication US20080306076A1, “MODULATION OF CHEMOSENSORY RECEPTORS AND LIGANDS ASSOCIATED THEREWITH” (SENOMYX, INC., priority 2007, published 2008).
Residue numbers refer to the chain shown, from its start.

Tests used:
hT1R1 H308A = target: T1, hT1R1 H308A (Homo sapiens, UniProt Q7RTX1, H308A); test: Mutagenesis study, hT1R1 mutant H308A; format: cell-based; settings: H308 mutation
T1 construct: expressed in transfected cells; host or cells: HEK293, transient transfection
T1 sequence (Q7RTX1 21-841 H308A): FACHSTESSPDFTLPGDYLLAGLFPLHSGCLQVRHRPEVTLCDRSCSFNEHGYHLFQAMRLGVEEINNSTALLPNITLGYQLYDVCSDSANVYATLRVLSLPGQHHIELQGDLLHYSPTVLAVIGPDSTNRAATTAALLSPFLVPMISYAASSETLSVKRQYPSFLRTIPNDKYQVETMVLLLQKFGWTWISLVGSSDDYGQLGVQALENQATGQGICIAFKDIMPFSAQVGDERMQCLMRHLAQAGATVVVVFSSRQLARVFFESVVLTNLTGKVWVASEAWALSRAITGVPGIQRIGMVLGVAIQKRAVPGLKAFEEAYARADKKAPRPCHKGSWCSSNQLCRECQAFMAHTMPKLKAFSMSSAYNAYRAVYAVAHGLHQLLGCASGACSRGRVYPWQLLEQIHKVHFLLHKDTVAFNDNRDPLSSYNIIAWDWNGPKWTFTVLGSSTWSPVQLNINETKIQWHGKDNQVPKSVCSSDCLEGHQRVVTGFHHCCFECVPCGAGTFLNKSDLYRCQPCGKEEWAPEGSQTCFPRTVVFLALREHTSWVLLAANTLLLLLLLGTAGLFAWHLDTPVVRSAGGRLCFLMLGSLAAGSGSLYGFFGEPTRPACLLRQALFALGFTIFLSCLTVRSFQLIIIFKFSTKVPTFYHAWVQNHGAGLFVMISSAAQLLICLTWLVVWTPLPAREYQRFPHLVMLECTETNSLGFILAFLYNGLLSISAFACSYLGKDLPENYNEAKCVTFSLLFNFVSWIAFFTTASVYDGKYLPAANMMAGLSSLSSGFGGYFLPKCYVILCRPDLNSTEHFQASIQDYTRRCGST
T1 sequence (Q923K1 21-858 partner): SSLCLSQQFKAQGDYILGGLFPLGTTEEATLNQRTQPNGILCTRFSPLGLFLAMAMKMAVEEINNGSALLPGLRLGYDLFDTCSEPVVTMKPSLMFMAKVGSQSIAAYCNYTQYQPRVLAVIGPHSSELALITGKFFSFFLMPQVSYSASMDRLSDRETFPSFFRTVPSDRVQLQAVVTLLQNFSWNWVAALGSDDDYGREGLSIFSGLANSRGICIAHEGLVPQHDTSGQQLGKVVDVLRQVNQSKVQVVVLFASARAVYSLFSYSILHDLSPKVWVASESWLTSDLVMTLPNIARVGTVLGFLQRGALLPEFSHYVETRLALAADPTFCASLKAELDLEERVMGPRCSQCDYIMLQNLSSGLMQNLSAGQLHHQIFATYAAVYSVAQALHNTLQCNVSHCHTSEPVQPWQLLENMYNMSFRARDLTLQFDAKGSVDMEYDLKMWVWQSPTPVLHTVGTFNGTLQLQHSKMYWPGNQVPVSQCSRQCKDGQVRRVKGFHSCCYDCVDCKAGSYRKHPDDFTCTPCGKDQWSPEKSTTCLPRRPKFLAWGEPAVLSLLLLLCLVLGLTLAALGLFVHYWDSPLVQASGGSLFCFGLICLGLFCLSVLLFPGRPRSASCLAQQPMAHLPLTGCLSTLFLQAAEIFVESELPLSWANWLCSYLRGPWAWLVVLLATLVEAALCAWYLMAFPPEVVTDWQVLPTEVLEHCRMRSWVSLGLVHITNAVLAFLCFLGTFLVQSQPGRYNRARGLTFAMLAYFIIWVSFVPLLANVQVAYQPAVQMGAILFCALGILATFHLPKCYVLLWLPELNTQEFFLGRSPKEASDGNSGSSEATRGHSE
Text: (§1) In order to further define the interaction sites of umami stimuli, we performed site-directed mutagenesis on human T1R1 VFT. The mutagenesis was done using the routine PCR-based method. […] were transiently transfected into HEK293 cell together with the rat T1R3 wild type cDNA, and the transfected cells were characterized using an automated FLIPR machine or a calcium imaging system as described in our previous patent applications.

hT1R1 D192A = target: T2, hT1R1 D192A (Homo sapiens, UniProt Q7RTX1, D192A); test: Mutagenesis study, hT1R1 mutant D192A; format: cell-based; settings: D192 mutant, FIG. 11
T2 construct: expressed in transfected cells; host or cells: HEK293, transient transfection
T2 sequence (Q7RTX1 21-841 D192A): T1 sequence (Q7RTX1 21-841 H308A) with D172A, A288H
T2 sequence (Q923K1 21-858 partner): T1 sequence (Q923K1 21-858 partner)
Text: as §1

## Nc1nc2c(ncn2[C@@H]2O[C@H](COP(=O)(O)O)[C@@H](O)[C@H]2O)c(=O)[nH]1 [GMP, guanosine-5′-monophosphate]
hT1R1 H308A
  enhancement activity of GMP: similarly affected

## N[C@@H](CCC(=O)O)C(=O)O [L-Glu, L-glutamate]
hT1R1 D192A
  activity against L-Glu: significant reduced activity
